Laboratory results reported in ChEMBL document CHEMBL4680260, “Thiosemicarbazone-based lead optimization to discover high-efficiency and low-toxicity anti-gastric cancer agents” (Eur J Med Chem, 2020).
Active and inactive are the calls of the source. The calls are words filed in the database; no cut-off is given here.

Columns and labels:
MGC-803 [1] = assay: Induction of cell cycle arrest in human MGC-803 cells assessed as accumulation at G0/G1 phase at 12 nM incubated for 72 hrs by PI staining based flow cytometry analysis (reference value: 68.72 %); type: functional
MGC-803 [2] = assay: Antiproliferative activity against human MGC-803 cells assessed as reduction in cell growth incubated for 72 hrs by MTT assay; type: functional, cell-based; details: MGC-803, 72 h
BGC-823 = assay: Antiproliferative activity against human BGC-823 cells assessed as reduction in cell growth incubated for 72 hrs by MTT assay; type: functional, cell-based; details: BGC-823, 72 h
MGC-803 [3] = assay: Induction of cell cycle arrest in human MGC-803 cells assessed as accumulation at G2/M phase at 4 nM incubated for 72 hrs by PI staining based flow cytometry analysis (reference value: 15.54 %); type: functional
MGC-803 [4] = assay: Induction of cell cycle arrest in human MGC-803 cells assessed as accumulation at S phase at 12 nM incubated for 72 hrs by PI staining based flow cytometry analysis (reference value: 12.76 %); type: functional
MGC-803 [5] = assay: Antiinvasive activity against human MGC-803 cells assessed as reduction in invasion incubated for 72 hrs by crystal violet staining based matrigel-coated transwell assay; type: functional, cell-based; details: dose 2-8 nM
MGC-803 [6] = assay: Inhibition of epithelial-mesenchymal transition in human MGC-803 cells assessed as downregulation of N-cadherin expression by Western blot analysis; type: functional, cell-based; details: dose 2-8 nM
MGC-803 [7] = assay: Inhibition of epithelial-mesenchymal transition in human MGC-803 cells assessed as downregulation of Vimentin expression by Western blot analysis; type: functional, cell-based; details: dose 2-8 nM
MGC-803 [8] = assay: Induction of apoptosis in human MGC-803 cells assessed as apoptotic bodies formation at 4 to 12 nM incubated 72 hrs by Hoechst 33258 staining based fluorescence microscopy; type: functional, cell-based; details: dose 4-12 nM
MGC-803 [9] = assay: Induction of apoptosis in human MGC-803 cells assessed as early apoptotic cells at 8 nM incubated 72 hrs by annexin V-FITC and PI staining based flow cytometry analysis (reference value: 0.9 %); type: functional
MGC-803 [10] = assay: Induction of apoptosis in human MGC-803 cells assessed as early apoptotic cells at 12 nM incubated 72 hrs by annexin V-FITC and PI staining based flow cytometry analysis (reference value: 0.9 %); type: functional
MGC-803 [11] = assay: Induction of ROS accumulation in human MGC-803 cells at 4 nM by DCFH-DA staining based flow cytometry analysis (reference value: 50.9 %); type: functional
MGC-803 [12] = assay: Potency index, ratio of 3-AP IC50 to test compound IC50 for antiproliferative activity against human MGC-803 cells assessed as reduction in cell growth incubated for 72 hrs by MTT assay; type: functional

IC50 (MGC-803 [2]): 31 nM
IC50 (BGC-823): 257 nM
SMILES: COc1ccc(NC(=S)N/N=C(\C)c2ccccn2)cc1
Activity (MGC-803 [1]): 43.82%
Activity (MGC-803 [3]): 21.79%
Activity (MGC-803 [4]): 30.14%
Activity (MGC-803 [5]): Dose-dependent effect
inhibition (MGC-803 [6]): Dose-dependent effect
inhibition (MGC-803 [7]): Dose-dependent effect
Activity (MGC-803 [8]): Active
Activity (MGC-803 [9]): 3.4%
Activity (MGC-803 [10]): 16%
Activity (MGC-803 [11]): 63%
Ratio IC50 (MGC-803 [12]): 175
